Source: BindingDB's records for patent US20250313563 (The Broad Institute, 2025)
Values joined by “and” are separate entries in the source; they are usually repeats but may differ in a detail not shown here. Equal entries are not always repeated.

Assays:
[1] = target: Glycogen synthase kinase-3 alpha (Homo sapiens, UniProt P49840); experiment: TR-FRET Assay
Method in brief: (§1)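 Signal is measured as TR-FRET between a terbium anti-phospho-Ser641 antibody and streptavidin-d2, added after an EDTA quench. Compounds are preincubated 30 min in assay buffer.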

[2] = target: Glycogen synthase kinase-3 beta (Homo sapiens, UniProt P49841); experiment: TR-FRET Assay
Chain of Glycogen synthase kinase-3 beta (P49841 whole entry): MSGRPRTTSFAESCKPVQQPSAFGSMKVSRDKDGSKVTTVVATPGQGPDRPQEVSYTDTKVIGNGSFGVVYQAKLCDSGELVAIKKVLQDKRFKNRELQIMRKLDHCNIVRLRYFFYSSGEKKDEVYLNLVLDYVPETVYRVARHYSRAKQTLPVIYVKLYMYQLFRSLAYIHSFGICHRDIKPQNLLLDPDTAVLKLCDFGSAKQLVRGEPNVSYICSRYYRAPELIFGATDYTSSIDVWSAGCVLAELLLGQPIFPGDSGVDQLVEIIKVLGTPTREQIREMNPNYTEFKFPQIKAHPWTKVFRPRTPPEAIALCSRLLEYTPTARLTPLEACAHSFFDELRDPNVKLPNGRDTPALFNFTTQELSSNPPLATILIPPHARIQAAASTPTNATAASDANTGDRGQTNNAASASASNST
Method in brief: as §1

Chain of Glycogen synthase kinase-3 alpha (P49840 whole entry): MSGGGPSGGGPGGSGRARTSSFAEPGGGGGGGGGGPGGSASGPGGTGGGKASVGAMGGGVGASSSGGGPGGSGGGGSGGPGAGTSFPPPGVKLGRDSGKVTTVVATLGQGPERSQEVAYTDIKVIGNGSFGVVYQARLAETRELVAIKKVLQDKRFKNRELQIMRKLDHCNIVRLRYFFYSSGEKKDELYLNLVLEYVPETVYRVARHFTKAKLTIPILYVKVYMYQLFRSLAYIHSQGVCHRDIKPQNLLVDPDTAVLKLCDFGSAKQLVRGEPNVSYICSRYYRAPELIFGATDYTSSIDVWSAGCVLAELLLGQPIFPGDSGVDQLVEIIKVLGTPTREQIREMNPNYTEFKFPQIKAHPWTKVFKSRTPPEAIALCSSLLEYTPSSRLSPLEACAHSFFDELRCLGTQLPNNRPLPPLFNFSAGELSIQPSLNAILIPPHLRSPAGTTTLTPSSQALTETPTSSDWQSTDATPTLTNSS

Compound | IC50 [1] | IC50 [2]
CC[C@@]1(c2cccc(-c3ccnc(C)c3)c2)C2=CN=NC2NC2=C1C(=O)[C@@H](F)C(C)(C)C2 (stereo partly drawn) [US20250313563, Compound 945475] | < 100 nM and 1000 to 5000 nM | 100 to 1000 nM and > 5000 nM
CC1(C)CC(=O)C2=C(C1)NC1=C(CN=N1)C21COC2(CN(S(=O)(=O)c3ccccc3)C2)C1 (stereo not drawn) [US20250313563, Compound 913002] | 100 to 1000 nM | 1000 to 5000 nM
CC[C@]1(c2cccc(-c3cc[n+]([O-])c(C)c3)c2)C2=CN=NC2NC2=C1C(=O)CC(C)(C)C2 (stereo partly drawn) [US20250313563, Compound 946055] | 100 to 1000 nM | 1000 to 5000 nM
CC[C@@]1(c2cccc(C(F)(F)F)c2)C2=C(CC(C)(C)NC2=O)NC2N=NC(F)=C21 (stereo partly drawn) [US20250313563, Compound 957497] | > 5000 nM | > 5000 nM
CC[C@@]1(c2cccc(Oc3ncccn3)c2)C2=C(CC(C)(C)NC2=O)NC2N=NC(F)=C21 (stereo partly drawn) [US20250313563, Compound 951944] | 1000 to 5000 nM | > 5000 nM
CC[C@@]1(c2cccc(-c3ccnn3C3CC3(F)F)c2)C2=CN=NC2NC2=C1C(=O)NC(C)(C)C2 (stereo partly drawn) [US20250313563, Compound 950824] | < 100 nM and 100 to 1000 nM | < 100 nM and 100 to 1000 nM
CCC1(c2cccc(-c3ccnc(C)n3)c2)C2=CN=NC2NC2=C1C(=O)CC(C)(C)C2 (stereo not drawn) [US20250313563, Compound 948088] | 100 to 1000 nM | 1000 to 5000 nM
CC[C@@]1(c2ccccc2)C2=CN=NC2NC2=C1C(=O)C[C@]1(CCN(C)C1=O)C2 (stereo partly drawn) [US20250313563, Compound 949753] | 1000 to 5000 nM | > 5000 nM
Cn1cc(S(=O)(=O)N2CC[C@@]3(C2)C2=C(N=NC2)NC2=C3C(=O)CC(C)(C)C2)cn1 [US20250313563, Compound 951725] | 100 to 1000 nM | 1000 to 5000 nM
CCC1(c2cccc(C3CC3)c2)C2=CN=NC2NC2=C1C(=O)CC(C)(C)C2 (stereo not drawn) [US20250313563, Compound 801316] | < 100 nM | < 100 nM
CCC1(c2cccc(-c3nc(C)ncc3C)c2)C2=CN=NC2NC2=C1C(=O)CC(C)(C)C2 (stereo not drawn) [US20250313563, Compound 948091] | < 100 nM | 100 to 1000 nM
CCC1(c2cccc(-n3ccnc3)c2)C2=CN=NC2NC2=C1C(=O)CC(C)(C)C2 (stereo not drawn) [US20250313563, Compound 854926] | < 100 nM | 100 to 1000 nM
CC1(C)CC2=C(C(=O)N1)C1(CCN(S(=O)(=O)C3CCCC3)CC1)C1=C(N=NC1)N2 [US20250313563, Compound 943960] | < 100 nM and 100 to 1000 nM | < 100 nM and 100 to 1000 nM
CC[C@@]1(c2cccc(-c3ccncc3C)c2)C2=CN=NC2NC2=C1C(=O)N[C@@]1(CCCOC1)C2 (stereo partly drawn) [US20250313563, Compound 947909] | 100 to 1000 nM | 1000 to 5000 nM
CC[C@]1(c2cccc(C3CCCC3)c2)C2=CN=NC2NC2=C1C(=O)CC(C)(C)C2 (stereo partly drawn) [US20250313563, Compound 949397] | < 100 nM and 100 to 1000 nM | < 100 nM and 1000 to 5000 nM
CC1OCCC12C1=C(N=NC1)NC1=C2C(=O)CC(C)(C)C1 (stereo not drawn) [US20250313563, Compound 911958] | > 5000 nM | > 5000 nM
CC1(C)CC(=O)C2=C(C1)NC1=C(CN=N1)[C@@]21CCCN(S(=O)(=O)C2CC2)CC1 [US20250313563, Compound 932639] | < 100 nM | 100 to 1000 nM
CC[C@]1(c2cccc(-c3ccncc3C)c2)C2=C(CC(C)(C)NC2=O)NC2N=NC(C)=C21 (stereo partly drawn) [US20250313563, Compound 947409] | 1000 to 5000 nM | > 5000 nM
CC[C@]1(c2cccc(-c3cn(C)nc3C(C)C)c2)C2=CN=NC2NC2=C1C(=O)NC(C)(C)C2 (stereo partly drawn) [US20250313563, Compound 949106] | 1000 to 5000 nM | > 5000 nM
CCC1(c2cccc(-c3ccnc(C)c3C)c2)C2=CN=NC2NC2=C1C(=O)NC(C)(C)C2 (stereo not drawn) [US20250313563, Compound 945994] | < 100 nM | 100 to 1000 nM
CCC1(c2cccc(-c3cc(C)ncc3C)c2)C2=CN=NC2NC2=C1C(=O)CC(C)(C)C2 (stereo not drawn) [US20250313563, Compound 913346] | < 100 nM | 100 to 1000 nM
Cc1nn(C)c(C)c1S(=O)(=O)N1CCC2(CC1)C1=C(N=NC1)NC1=C2C(=O)CC(C)(C)C1 [US20250313563, Compound 947257] | 100 to 1000 nM | 1000 to 5000 nM
CC[C@@]1(c2cccc(Cc3ncccc3C(F)(F)F)c2)C2=CN=NC2NC2=C1C(=O)CC(C)(C)C2 (stereo partly drawn) [US20250313563, Compound 947665] | 1000 to 5000 nM | > 5000 nM
CC[C@]1(c2ccccc2)C2=C(N=NC2)NC2=C1C(=O)[C@@H]1CC[C@H]2C1 [US20250313563, Compound 791270] | 100 to 1000 nM | > 1700 nM

Continued, values first:

IC50 [1] | IC50 [2] | Compound
< 100 nM | < 100 nM | CC[C@]1(c2cccc(OC(C)C)c2)C2=CN=NC2NC2=C1C(=O)CC(C)(C)C2 (stereo partly drawn) [US20250313563, Compound 811564]
< 100 nM | 100 to 1000 nM | CC[C@]1(c2cccc(C(F)(F)F)c2)C2=C(N=NC2)NC2=C1C(=O)N(Cc1ccccc1)[C@@H]2C [US20250313563, Compound 930330]
< 100 nM | < 100 nM | CCC1(c2cccc(-c3cc(C)ncc3F)c2)C2=CN=NC2NC2=C1C(=O)CC(C)(C)C2 (stereo not drawn) [US20250313563, Compound 917132]
< 100 nM | 100 to 1000 nM | CCc1cc(-c2cccc(C3(CC)C4=CN=NC4NC4=C3C(=O)CC(C)(C)C4)c2)ccn1 (stereo not drawn) [US20250313563, Compound 947493]
< 100 nM | < 100 nM | CC1(C)CC(=O)C2=C(C1)NC1=C(CN=N1)C21CCN(S(=O)(=O)c2ccc3c(c2)CCO3)CC1 [US20250313563, Compound 913251]
< 100 nM | < 100 nM | CCC1(c2cccc(-c3cnnn3C(C)C)c2)C2=CN=NC2NC2=C1C(=O)CC(C)(C)C2 (stereo not drawn) [US20250313563, Compound 947397]
< 100 nM | 100 to 1000 nM | CO[C@H]1CC[C@@]2(CC1)C1=C(N=NC1)NC1=C2C(=O)CC(C)(C)C1 [US20250313563, Compound 884119]
< 100 nM | < 100 nM | CCC1(c2cccc(-c3cn(C)nc3C)c2)C2=CN=NC2NC2=C1C(=O)NC(C)(C)C2 (stereo not drawn) [US20250313563, Compound 944030]
< 100 nM | < 100 nM | CC[C@]1(c2cccc(-c3c(F)cncc3OC)c2)C2=CN=NC2NC2=C1C(=O)CC(C)(C)C2 (stereo partly drawn) [US20250313563, Compound 947511]
< 100 nM | 100 to 1000 nM | CC[C@]1(c2cccc(Br)c2)C2=CN=NC2NC2=C1C(=O)C[C@@H](C(F)(F)F)C2 (stereo partly drawn) [US20250313563, Compound 826653]
< 100 nM | < 100 nM | CCC1(c2cccc(N3CCOCC3)c2)C2=C(CC(C)(C)NC2=O)NC2N=NC(C(F)(F)F)=C21 (stereo not drawn) [US20250313563, Compound 947863]
< 100 nM | < 100 nM | CC[C@]1(c2ccc(OC(C)C)cc2)C2=C(CC(C)(C)CC2=O)NC2N=NC(C(F)(F)F)=C21 (stereo partly drawn) [US20250313563, Compound 947868]
< 100 nM | < 100 nM | CC[C@]1(c2cccc(C(F)(F)F)c2)C2=CN=NC2NC2=C1C(=O)N(C)C[C@@H]2C (stereo partly drawn) [US20250313563, Compound 883979]
< 100 nM | < 100 nM and 100 to 1000 nM | COc1ncccc1S(=O)(=O)N1CCC2(CC1)C1=C(N=NC1)NC1=C2C(=O)CC(C)(C)C1 [US20250313563, Compound 947260]
< 100 nM | 100 to 1000 nM | CC[C@@]1(c2cccc(-c3ccccc3)c2)C2=CN=NC2NC2=C1C(=O)CC(C)(C)C2 (stereo partly drawn) [US20250313563, Compound 801368]
